# Results taken from PMC11915509, “Small molecule inhibitors of hnRNPA2B1–RNA interactions reveal a predictable sorting of RNA subsets into extracellular vesicles” (Nucleic Acids Research, 2025).
# Experiments:
# [1] = test system: NF-kB; assay: NF-kB luciferase reporter in EV-recipient HEK293T cells; type: cell-based, human; conditions: EVs from hnRNPA2B1 OE HEK293T donor cells treated 5 μM 6 h; recipient cells 8 h
# Source text: To obtain some preliminary information on the bioactivity of identified compounds in relation to EV function, we explored the potential activation NF-kB in EV-recipient cells as a readout. […] We, therefore, used HEK293T cells as EV-recipient cells upon transfecting them with an NF-kB-responsive promoter activating the luciferase reporter. To work with an experimental set up considering the post-transcriptional effects on the readout, we evaluated if the expression of the recombinant hnRNPA2B1 could induce secretion of EVs capable of activating NF-kB if further exposed to autologous cells. […] We, therefore, exploited this system to test compounds including some indication on the relevance of the EV-RNA cargo in mediating the luciferase activation in recipient cells. […] Next, we washed with PBS and incubated cells with serum-free media for additional 24 h to recover EVs. We exposed these EVs for 8 h to HEK293T cells previously seeded in 96-well plate and transfected with the luciferase reporter plasmid for 24 h. […]
# Paracrine effect on NF-kB activation of EVs deriving from RBP-conditioned and treated cells. […] Firefly luminescence was normalized on cellular protein content at the end point on the corresponding sample. […]
# [2] = test system: HEK293T cells; assay: Cell viability dose response, HEK293T; type: cell-based, human; conditions: 24 hr
# Procedure: Supplementary Figure S6. Cell viability upon treatment with Hematein. Cells were exposed to increasing concentrations of Hematein or DMSO (control vehicle) for 24 hr under standard growth conditions. […] In both cases a range of drug tolerance was observed before the drop of viability over 10 µM. The graph indicates mean and SD of two independent experiments.
# [3] = test system: NSC34 cells; assay: Nanodrop quantification of total intracellular RNA after treatment; type: cell-based, mouse; conditions: 6 h treatment
# Procedure: RNA from cells was extracted using TRI Reagent® ([…], Sigma) following the manufacturer's instructions. Thermo Fisher Nanodrop 2000 Spectrophotometer was used to assess the purity and quantity of extracted RNA. RNA from EVs was extracted using Single Cell RNA Isolation Kit (51800, Norgen) following the manufacturer's protocol. The elution was in 10-20 μl of RNase-free water and the RNA profiling and quantification was assessed by Agilent 2100 Bioanalyzer and RNA 6000 Pico Kit (5067-1513). Cell- and EV-RNAs were also analysed with DNF-472 HS RNA (15 nt) Kit (Agilent Technologies, Santa Clara, CA), according to the manufacturer. Briefly, 2 μl of RNA samples concentrated within a range of 50-5000 pg/μl and RNA Ladder were added to Diluent Marker, denatured at 70°C for 2 min and loaded. Results were analysed with Agilent ProSize data analysis software, that allows the analysis of RNA size, concentration and quality. Through a Peak Analysis it was possible to access the concentration of each peak recognized by the software. Half a nanogram of extracted RNA from cells and EVs was used as input for complementary DNA (cDNA) synthesis. cDNA was produced using TaqManTM Advanced miRNA cDNA Synthesis Kit (Applied BiosystemsTM, A28007) following manufacturers' instructions and used for droplet digital polymerase chain reaction (PCR) experiments.
# [4] = test system: hnRNPA2B1 and TDP43 bound RNA (miR-221, miR-1910); assay: RNA immunoprecipitation (RIP) on cytoplasmic lysates of treated NSC34 cells; type: cell-based, mouse; conditions: 6 h treatment, anti-hnRNPA2B1 and anti-TDP43 RIP
# Procedure: Flow cytometry of a fraction of RNA immunoprecipitation (RIP) experiments, consisting of RNA/protein-antibody-bead complexes, was performed on the same instrument using a sequential gating with Streptavidin beads alone ± antibodies (this signal corresponded to background). Pyronin Y (PY) was used at a final concentration of 50 ng/ml and the PY-positive events recorded for 1 min.
# Approximately 2 × 10^6 cells were used for each RIP experiment, performed as already described, without cross-linking steps and using 0.5 μg/ml of antibodies. Beads-precipitated samples were divided for immunoblotting or TRIzol-based RNA isolation. Densitometric analysis obtained using Image J software (v.1.54). miRNA TaqMan probes were bought from Thermo Fisher with the following codes: miR-221 (477 981), miR-1910 (479 581), and miR-126 (4 427 975).
# [5] = test system: EV miR-221 from NSC34 cells; assay: ddPCR of miR-221-3p in NSC34-derived EV-RNA; type: cell-based, mouse; conditions: NSC34-derived EVs, 6 h treatment
# Procedure: EVs were isolated from HEK293T, NSC34, and smNPC-derived motor neurons using nickel-based isolation (NBI) or differential ultracentrifugation (UC). NBI protocol was performed as already described. Briefly, after a first centrifugation step at 2800 × g for 10 min, nickel beads were incubated for 30 min with serum-free media collected from cells in a ratio of 25 μl of beads per ml of medium. After a 2 min centrifugation at 600 g, particles were eluted from the beads by adding 1× elution buffer made of Solution A [16 mM ethylenediaminetetraacetic acid (EDTA), UltraPure, pH 8.0, Thermo Fisher] and Solution B (10 mM NaCl, 225 μM citric acid, Sigma–Aldrich) diluted five times in phosphate-buffered saline (PBS). After 15 min incubation at 28°C in a thermoshaker, the EVs were retrieved by 1-min centrifugation at 1800 × g and subjected to the following characterization. NBI was used to recover polydisperse EVs and include the RNA contribution from these for reverse proteomics experiments. The EV-RNA for reverse proteomics was pooled from three consecutive EV isolation procedures performed on a total of 30 T75 flasks (10 flasks each) of NSC34 cells grown until 80% confluence under standard conditions before washing with PBS and incubating with serum-free medium with glutamine and antibiotics. Differential UC was applied as an alternative EV isolation protocol to confirm the detection of hnRNPA2B1 protein. UC was performed by a SW 32 Ti swinging bucket rotor in an Optima XPN-100 ultracentrifuge (Beckman Coulter, Brea, CA, USA). The cell-conditioned serum-free media, after the first centrifugation step at 2800 × g for 10 min, was put in open-top Ultra-Clear centrifuge tubes (Beckman Coulter-344058) and subjected to 100 000 × g (100 K) UC for 70 min at 4°C under vacuum, with or without an additional step at 10 000 × g (10 K) to first sediment larger particles. Then the supernatant was removed, and the pellet was resuspended in 0.22 μm filtered PBS. Differential UC alone, consisting of 2800 × g for 10 min and 100 000 × g for 70 min, was applied for experiments reported in Fig. 5. […]
# RNA from cells was extracted using TRI Reagent® (T9424, Sigma) following the manufacturer’s instructions. Thermo Fisher Nanodrop 2000 Spectrophotometer was used to assess the purity and quantity of extracted RNA. […] The elution was in 10–20 μl of RNase-free water and the RNA profiling and quantification was assessed by Agilent 2100 Bioanalyzer and RNA 6000 Pico Kit (5067-1513). Cell- and EV-RNAs were also analysed with DNF-472 HS RNA (15 nt) Kit (Agilent Technologies, Santa Clara, CA), according to the manufacturer. […] Results were analysed with Agilent ProSize data analysis software, that allows the analysis of RNA size, concentration and quality. […]
smiles,measurement,setting,value
"O=C1C=C2CC3(O)COc4c(ccc(O)c4O)C3=C2C=C1O (stereo not drawn) [H, hematein]","EV-mediated, hnRNPA2B1-induced NF-kB activation",[1],significantly counteracted
same,concentration of drop of viability,[2],over 10 µM
same,IC50,"[2]; Homo sapiens, HEK-293T",~41 µM
same,accumulation of intracellular RNAs,[3],significantly higher
same,"percentage of bound targets (miR-221, miR-1910)",[4],significantly reduced
same,"vesicular miR-221, copy number normalized on Y3 RNA and DMSO",[5],vesicular depletion
